Source: patent US20140031227A1, “HERBICIDAL COMPOSITIONS COMPRISING 4-AMINO-3-CHLORO-5-FLUORO-6-(4-CHLORO-2-FLUORO-3-METHOXYPHENYL) PYRIDINE-2-CARBOXYLIC ACID OR A DERIVATIVE THEREOF AND GLYPHOSATE OR GLUFOSINATE” (DOW AGROSCIENCES LLC, priority 2012, published 2014)
Counter-ions that a name gives are not always drawn.

How the values were obtained:
[1] = test system: ELEIN (Eleusine indica (L.) Gaertn., goosegrass); test: Example III postemergence foliar-applied mixtures, row crop weeds (corn, soybean), greenhouse: ELEIN; assay type: in vivo
Procedure: (§1) Seeds or nutlets of the desired test plant species were planted in a soil matrix prepared by mixing a loam or sandy loam soil (e.g., 43 percent silt, 19 percent clay, and 38 percent sand, with a pH of about 8.1 and an organic matter content of about 1.5 percent) and calcareous grit in an 80 to 20 ratio. The soil matrix was contained in plastic pots with a surface area of 84.6 square centimters (cm^2) and a volume of 560 cubic centimeters (cm^3). […] The plants were grown for 7-31 days (d) in a greenhouse with an approximate 15 hour (h) photoperiod which was maintained at about 23-29° C. during the day and 22-28° C. during the night. Nutrients (Peters Excel® 15-5-15 5-Ca 2-Mg) and water were added on a regular basis and supplemental lighting was provided with overhead metal halide 1000-Watt lamps as necessary. The plants were employed for testing when they reached the first, second, or third true leaf stage.
Treatments consisted of the acid or esters of 4-amino-3-chloro-5-fluoro-6-(4-chloro-2-fluoro-3-methoxy-phenyl)pyridine-2-carboxylic acid (Compound A), each formulated as an
SC (suspension concentrate), and various herbicidal components alone and in combination. Forms of compound A were applied on an acid equivalent basis.
(§2) Other herbicidal components were applied on an acid equivalent or active ingredient basis and included the 5-enolpyruvylshikimate-3-phosphate synthase (EPSPS)-inhibiting herbicide, glyphosate dimethylamine salt, formulated as Durango DMA® and the glutamine synthase (GS)-inhibiting herbicide, glufosinate ammonium, formulated as Ignite® 280.
For treatments comprised of formulated compounds, measured amounts of compounds were placed individually in 25 mL glass vials and diluted in a volume of 1.5% (v/v) Agri-dex® crop oil concentrate to obtain 6× stock solutions. […] Application solutions were prepared by adding an appropriate amount of each stock solution (typically 2 mL) and diluted to the appropriate final concentrations with the addition of an aqueous mixture of 1.5% (v/v) crop oil concentrate and water so that the final spray solutions contained 1.25% (v/v) crop oil concentrate.
All stock solutions and applications solutions were visually inspected for compound compatibility prior to application. Compound requirements are based upon a 12 mL application volume at a rate of 187 liters per hectare (L/ha). Formulated compounds were applied to the plant material with an overhead Mandel track sprayer equipped with 8002E nozzles calibrated to deliver 187 L/ha over an application area of 0.503 square meters (m^2) at a spray height of 18 to 20 inches (46 to 50 cm) above the average plant canopy height. Control plants were sprayed in the same manner with the solvent blank.
(§3) The treated plants and control plants were placed in a greenhouse as described above and watered by sub-irrigation to prevent wash-off of the test compounds. After approximately 2 weeks, the condition of the test plants as compared with that of the untreated plants was determined visually and scored on a scale of 0 to 100 percent where 0 corresponds to no injury or growth inhibition and 100 corresponds to complete kill.
The following equation was used to calculate the expected activity of mixtures containing two active ingredients, A and B: […]

[2] = test system: VIOTR (Viola tricolor L., wild violet); test: Example IV postemergence foliar-applied mixtures, general weed control, greenhouse: VIOTR; assay type: in vivo; details: Compound A Benzyl Ester alone
Procedure: as §1, with “Sun Gro Metro-Mix® 360 planting mixture, which typically has” for “a soil matrix prepared by mixing a loam or sandy loam soil (e.g., 43 percent silt, 19 percent clay, and 38 percent sand, with”, “6.0 to 6.8” for “about 8.1”, “30 percent,” for “1.5 percent) and calcareous grit in an 80 to 20 ratio. The soil matrix was contained”, “square” for “square centimters (cm^2) and a volume of 560 cubic”, “(cm^2).” for “(cm^3).”
Treatments consisted of the acid or the benzyl ester of 4-amino-3-chloro-5-fluoro-6-(4-chloro-2-fluoro-3-methoxy-phenyl)pyridine-2-carboxylic acid (Compound A), each formulated as an SC, and various herbicidal components alone and in combination. Forms of compound A were applied on an acid equivalent basis.
as §2
For treatments comprised of formulated compounds, measured amounts of compounds were placed individually in 25 mL glass vials and diluted in a volume of 1.25% (v/v) Agri-dex crop oil concentrated to obtain 12× stock solutions. […] Application solutions were prepared by adding an appropriate amount of each stock solution (typically 1 mL) and diluted to the appropriate final concentrations with the addition of 10 mL of an aqueous mixture of 1.25% (v/v) Agri-dex crop oil concentrate so that the final spray solutions contained 1.25% (v/v) Agri-dex crop oil concentrate.
All stock solutions and applications solutions were visually inspected for compound compatibility prior to application. Compound requirements are based upon a 12 mL application volume at a rate of 187 liters per hectare (L/ha). […]
as §3, with “3” for “2”, “kill. […]” for “kill.”

COc1c(Cl)ccc(-c2nc(C(=O)O)c(Cl)c(N)c2F)c1F [Compound A Acid, 4-amino-3-chloro-6-(4-chloro-2-fluoro-3-methoxyphenyl)-5-fluoropyridine-2-carboxylic acid]
Visual Weed Control (%) - 16 DAA ELEIN Obs ([1]; Compound A Acid alone, 7.5 gae/ha): 10%
Visual Weed Control (%) - 16 DAA ELEIN Obs ([1]; Compound A Acid alone, 15 gae/ha): 10%

COc1c(Cl)ccc(-c2nc(C(=O)OCc3ccccc3)c(Cl)c(N)c2F)c1F [Compound A Benzyl Ester]
Visual Weed Control (%) - 18 DAA VIOTR Obs ([2]; 2 gae/ha): 15%
Visual Weed Control (%) - 18 DAA VIOTR Obs ([2]; 4 gae/ha): 20%

CP(=O)(O)CCC(N)C(=O)O (stereo not shown) [Glufosinate ammonium salt, 2-amino-4-(hydroxymethylphosphinyl)butanoic acid monoammonium salt, reference compound]
Visual Weed Control (%) - 16 DAA ELEIN Obs ([1]; glufosinate ammonium alone, 28.25 gae/ha): 0%
Visual Weed Control (%) - 16 DAA ELEIN Obs ([1]; glufosinate ammonium alone, 56.5 gae/ha): 0%
Visual Weed Control (%) - 16 DAA ELEIN Obs ([1]; glufosinate ammonium alone, 113 gae/ha): 10%
